One block for each compound: values may come before it.
How the values were obtained:
[1] = logP determination by HPLC on a reversed-phase column (C18), EEC Directive 79/831 Annex V.A8; assay type: physicochemical
Description: (§1) ^a) Note regarding the determination of the logP values and mass detection: The determination of the given logP values was carried out in accordance with EEC Directive 79/831 Annex V.A8 by HPLC (High Performance Liquid Chromatography) on a reversed-phase column (C18). Agilent 1100 LC system; 50*4.6 Zorbax Eclipse Plus C18 1.8 micron; mobile phase A: acetonitrile (0.1% formic acid); mobile phase B: water (0.09% formic acid); linear gradient from 10% acetonitrile to 95% acetonitrile in 4.25 min, then 95% acetonitrile for a further 1.25 min; oven temperature 55° C.; flow rate: 2.0 ml/min. Mass detection is carried out via an Agilend MSD system.
as §1, with “^*)” for “^a)”

[2] = tested on: larvae of the mustard beetle (Phaedon cochleariae); test: Phaedon cochleariae spray test (PHAECO); assay type: in vivo; settings: Chinese cabbage leaf discs, after 7 days
Description: H. Phaedon cochleariae-spray Test (PHAECO)
Solvents: 78.0 parts by weight of acetone
• 1.5 parts by weight of dimethylformamide Emulsifier: alkylaryl polyglycol ether
To produce a suitable preparation of active compound, 1 part by weight of active compound is dissolved using the stated parts by weight of solvent and made up with water comprising an emulsifier concentration of 1000 ppm until the desired concentration is reached. To produce further test concentrations, the preparation is diluted with emulsifier-containing water.
After 7 days, the efficacy in % is determined. 100% means that all of the beetle larvae have been killed; 0% means that none of the beetle larvae have been killed.

[3] = tested on: adult cat fleas (Ctenocephalides felis); test: Ctenocephalides felis in vitro contact test with adult cat fleas (T1); settings: after 48 h
Description: T1. Ctenocephalides felis—in vitro Contact Tests with Adult Cat Fleas
For the coating of the test tubes, initially 9 mg of active compound are dissolved in 1 ml of acetone p.a. and then diluted with acetone p.a. to the desired concentration. By turning and rocking on an orbital shaker (2 h of rocking rotation at 30 rpm), 250 μl of the solution are distributed homogeneously on the internal walls and the floor of a 25 ml test tube. At 900 ppm active compound solution and 44.7 cm^2 internal surface, an area dose of 5 μg/cm^2 is achieved for homogeneous distribution.
After evaporation of the solvent, the tubes are populated with 5-10 adult cat fleas (Ctenocephalides felis), sealed with a perforated plastic lid and incubated in a horizontal position at room temperature and ambient humidity. After 48 h, the efficacy is determined. To this end, the test tubes are stood upright and the fleas are knocked to the floor of the tube. Fleas which remain motionless on the floor or move in an uncoordinated manner are considered to be dead or moribund.
An efficacy of 100% means that all fleas were dead or moribund. 0% efficacy means that none of the fleas had been damaged.

[4] = HPLC on reversed-phase column (C18), acetonitrile/water with formic acid, EEC Directive 79/831 Annex V.A8
[5] = HPLC, reversed-phase C18, acetonitrile (0.1% formic acid)/water (0.09% formic acid) gradient

SMILES: Cn1nc(C(F)(F)F)c(C=NO)c1-n1cc(-c2ccc(Cl)c(C(=O)NC3CC3)c2)cn1 (mixture of isomers) [Ic-50]
logP [1, 4]: 2.47

SMILES: CON=Cc1c(C(F)(F)F)nn(C)c1-n1cc(-c2ccc(Cl)c(C(=O)NC3CC3)c2)cn1 (mixture of isomers) [Ic-51]
logP [1, 4]: 3.15
efficacy in % ([2]; application rate 500 g/ha): 100%

SMILES: Cn1nc(C(F)(F)F)c(C=NO)c1-n1cc(-c2ccc(Cl)c(C(=O)NC3(C#N)CC3)c2)cn1 (mixture of isomers) [Ic-98]
logP [1, 4]: 2.42

chromatographic logP [1]: 4
SMILES: Cn1nc(C(F)(F)C(F)(F)F)c(C(F)(F)F)c1-n1cnc(-c2ccc(Cl)c(C(=O)NCc3ccccc3)c2)c1 [Ib-1, N-Benzyl-2-chloro-5-{1-[1-methyl-3-(pentafluoroethyl)-4-(trifluoromethyl)-1H-pyrazol-5-yl]-1H-imidazol-4-yl}benzamide]
efficacy in % ([2]; application rate 100 g/ha): 83%

SMILES: Cc1c(-c2ccc(Cl)c(C(=O)NC3CC3)c2)c(C(F)(F)F)nn1-c1c(C(F)(F)F)c(C(F)(F)C(F)(F)F)nn1C [Ic-5]
logP [1, 4]: 4.60
efficacy in % ([2]; application rate 100 g/ha): 83%

SMILES: Cn1nc(C(F)(F)F)c(C#N)c1-n1cc(-c2ccc(Cl)c(C(=O)NC3CC3)c2)cn1 [Ic-30]
logP [1, 4]: 2.97
efficacy in % ([2]; application rate 100 g/ha): 100%

SMILES: Cn1nc(C(F)(F)F)c(C=O)c1-n1cc(-c2ccc(Cl)c(C(=O)NC3CC3)c2)cn1 [Ic-52]
logP [1, 4]: 2.67
efficacy in % ([2]; application rate 500 g/ha): 100%

SMILES: Cn1nc(C(F)(F)C(F)(F)F)c(C(F)(F)F)c1-n1cc(-c2cc(C(=O)NC3(C#N)CC3)c(Cl)cc2F)cn1 [Ic-93]
efficacy in % ([2]; application rate 500 g/ha): 100%

SMILES: Cn1nc(C(F)(F)F)c(C(=O)NC2CC2)c1-n1cc(-c2ccc(Cl)c(C(=O)NC3CC3)c2)cn1 [Ic-100]
logP [1, 4]: 2.31

SMILES: Cn1nc(C(F)(F)F)c(C(=O)NC2CC2)c1-n1cc(-c2ccc(Cl)c(C(=O)NC3(C#N)CC3)c2)cn1 [Ic-101]
logP [1, 4]: 2.32

SMILES: Cn1nc(C(F)(F)F)c(C=O)c1-n1cc(-c2ccc(Cl)c(C(=O)NC3(C#N)CC3)c2)cn1 [Ic-102]
logP [1, 4]: 2.61

SMILES: Cn1nc(C(F)(F)F)c(CCl)c1-n1cc(-c2ccc(Cl)c(C(=O)NC3CC3)c2)cn1 [Ic-114]
logP [1, 4]: 3.12

SMILES: CN(C)CCNC(=O)c1cc(-c2cnn(-c3c(C(F)(F)F)c(C(F)(F)C(F)(F)F)nn3C)c2)ccc1Cl [Ic-138]
efficacy (dead or moribund fleas) ([3]; application rate 5 μg/cm^2): 80%

SMILES: Cn1nc(C(F)(F)C(F)(F)F)c(C(F)(F)F)c1-n1cc(-c2ccc(Cl)c(C(=O)Nc3nn[nH]n3)c2)cn1 [Ic-144]
efficacy (dead or moribund fleas) ([3]; application rate 1 μg/cm^2): 100%
efficacy (dead or moribund fleas) ([3]; application rate 5 μg/cm^2): 100%

SMILES: Cn1nc(C(F)(F)C(F)(F)F)c(C(F)(F)F)c1-n1cc(-c2ccc(Cl)c(C(=O)Nc3ccon3)c2)cn1 [Ic-145]
efficacy (dead or moribund fleas) ([3]; application rate 1 μg/cm^2): 100%
efficacy (dead or moribund fleas) ([3]; application rate 5 μg/cm^2): 100%

SMILES: Cn1nc(C(F)(F)C(F)(F)F)c(C(F)(F)F)c1-n1cc(-c2ccc(Cl)c(C(=O)NCc3ncc[nH]3)c2)cn1 [Ic-146]
efficacy (dead or moribund fleas) ([3]; application rate 1 μg/cm^2): 80%
efficacy (dead or moribund fleas) ([3]; application rate 5 μg/cm^2): 80%

SMILES: Cn1nc(C(F)(F)C(F)(F)F)c(C(F)(F)F)c1-n1cc(-c2cc(C(=O)NC3CC3)c(F)c(S(N)(=O)=O)c2)cn1 [Ic-173]
efficacy in % ([2]; application rate 500 g/ha): 100%

SMILES: Cn1nc(C(F)(F)C(F)(F)F)c(C(F)(F)F)c1-n1cc(-c2cncc(C(=O)NC3CC3)n2)cn1 [Ic-178]
efficacy in % ([2]; application rate 100 g/ha): 100%

SMILES: Cn1nc(C(F)(F)C(F)(F)F)c(C(F)(F)F)c1-n1cc(-c2cncc(C(=O)NC3(C#N)CC3)n2)cn1 [Ic-179]
efficacy in % ([2]; application rate 500 g/ha): 100%

SMILES: Cn1nc(C(F)(F)C(F)(F)F)c(C(F)(F)F)c1-n1cc(-c2ccc(Cl)c(C(=O)NC3(C#N)CC3)c2)c(N)n1 [Ic-191]
logP [1, 4]: 3.3
efficacy in % ([2]; application rate 100 g/ha): 100%

SMILES: Cn1nc(C(F)(F)C(F)(F)F)c(C(F)(F)F)c1-n1cc(-c2ccc(Cl)c(C(=O)NC3CC3)c2)c(N)n1 [Ic-192]
logP [1, 4]: 3.35
efficacy in % ([2]; application rate 100 g/ha): 100%

SMILES: CSc1c(C(F)(F)C(F)(F)F)nn(C)c1-n1cc(-c2ccc(Cl)c(C(=O)NC3(C#N)CC3)c2)cn1 [Ic-194]
logP [1, 4]: 3.56

SMILES: Cn1nc(C(F)(F)C(F)(F)F)c(C(F)(F)F)c1-n1cc(-c2ccc(C(F)(F)F)c(C(=O)NC3CC3)c2)cn1 [Ic-196]
logP [1, 4]: 3.96

SMILES: CCN(CC)C(=O)c1cc(-c2cnn(-c3c(C(F)(F)F)c(C(F)(F)C(F)(F)F)nn3C)c2)ccc1S(=O)(=O)NC1CC1 [Ic-197]
logP [1, 4]: 4.39

SMILES: CN(C(=O)c1cc(-c2cnn(-c3c(C(F)(F)F)c(C(F)(F)C(F)(F)F)nn3C)c2)ccc1Cl)C1CC1 [Ic-199]
efficacy (dead or moribund fleas) ([3]; application rate 1 μg/cm^2): 100%
efficacy (dead or moribund fleas) ([3]; application rate 5 μg/cm^2): 100%

SMILES: Cn1nc(C(F)(F)C(F)(F)F)c(C(F)(F)F)c1-n1cc(-c2ccc(C(F)(F)F)c(C(=O)NC3(C#N)CC3)c2)cn1 [Ic-203]
logP [1, 4]: 3.88

SMILES: CCCN(C(=O)c1cc(-c2cnn(-c3c(C(F)(F)F)c(C(F)(F)C(F)(F)F)nn3C)c2)ccc1Cl)C1(C#N)CC1 [Ic-204]
logP [1, 4]: 4.56

SMILES: CCC(=O)N(C(=O)c1cc(-c2cnn(-c3c(C(F)(F)F)c(C(F)(F)C(F)(F)F)nn3C)c2)ccc1Cl)C1(C#N)CC1 [Ic-205]
logP [1, 4]: 4.63

SMILES: C=CCN(C(=O)c1cc(-c2cnn(-c3c(C(F)(F)F)c(C(F)(F)C(F)(F)F)nn3C)c2)ccc1Cl)C1(C#N)CC1 [Ic-206]
logP [1, 4]: 4.44

SMILES: CC(NC(=O)c1cc(-c2cnn(-c3c(C(F)(F)F)c(C(F)(F)C(F)(F)F)nn3C)c2)ccc1Cl)C1CC1 (stereo not drawn) [Ic-207]
logP [1, 4]: 4.4

SMILES: CCN(C(=O)c1cc(-c2cnn(-c3c(C(F)(F)F)c(C(F)(F)C(F)(F)F)nn3C)c2)ccc1Cl)C1(C#N)CC1 [Ic-208]
logP [1, 4]: 4.33

SMILES: Cn1nc(C(F)(F)C(F)(F)F)c(C(F)(F)F)c1-n1cc(-c2ccc(Cl)c(C(=O)Nc3ccc(F)cc3)c2)cn1 [Ic-209]
logP [1, 4]: 4.53

SMILES: Cn1nc(C(F)(F)C(F)(F)F)c(C(F)(F)F)c1-n1cc(-c2ccc(Cl)c(C(=O)NC3(C4CCC4)CC3)c2)cn1 [Ic-210]
logP [1, 4]: 4.77

SMILES: CCN(C(=O)c1cc(-c2cnn(-c3c(C(F)(F)F)c(C(F)(F)C(F)(F)F)nn3C)c2)ccc1Cl)C1CC1 [Ic-211]
efficacy (dead or moribund fleas) ([3]; application rate 1 μg/cm^2): 100%
efficacy (dead or moribund fleas) ([3]; application rate 5 μg/cm^2): 100%

SMILES: Cn1nc(C(F)(F)C(F)(F)F)c(C(F)(F)F)c1-n1cnc(-c2ccc(Cl)c(C(=O)NC3CC3)c2)n1 [Ie-2]
logP [1, 5]: 3.72

SMILES: Cn1nc(C(F)(F)C(F)(F)F)c(C(F)(F)F)c1-n1cnc(-c2cccc(C(=O)NC3CC3)c2)n1 [Ie-3]
logP [1, 5]: 3.50

SMILES: Cn1nc(C(F)(F)C(F)(F)F)c(C(F)(F)F)c1-n1cnc(-c2cccc(C(=O)NCc3cccs3)c2)n1 [Ie-4]
logP [1, 5]: 4.05
efficacy in % ([2]; application rate 100 g/ha): 100%

SMILES: Cn1nc(C(F)(F)C(F)(F)F)c(C(F)(F)F)c1-n1cnc(-c2cccc(C(=O)Nc3ccc(Cl)nc3)c2)n1 [Ie-5]
logP [1, 5]: 4.24
efficacy in % ([2]; application rate 100 g/ha): 100%

SMILES: Cn1nc(C(F)(F)C(F)(F)F)c(C(F)(F)F)c1-n1cnc(-c2cccc(C(=O)NC3(C(N)=S)CC3)c2)n1 [Ie-6]
logP [1, 5]: 3.29

SMILES: Cn1nc(C(F)(F)C(F)(F)F)c(C(F)(F)F)c1-n1cnc(-c2cccc(C(=O)NC3(C#N)CC3)c2)n1 [Ie-7]
logP [1, 5]: 3.46
